Measurements as given in PubChem BioAssay (NCI).
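Protocol summary: plate cells (96-well), add compound at 5 concentrations, incubate 48 h, interpolate endpoints linearly. GI50: concentration for 50% inhibition of growth. TGI: total growth inhibition.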

What was measured:
Assay in all cases: NCI anticancer screen, dose series, 48 h
UO-31 renal = tested on: UO-31 renal
HL-60(TB) leukemia = tested on: HL-60(TB) leukemia
HCT-116 colon = tested on: HCT-116 colon
SK-MEL-28 melanoma = tested on: SK-MEL-28 melanoma
KM12 colon = tested on: KM12 colon
IGROV1 ovarian = tested on: IGROV1 ovarian
U251 CNS = tested on: U251 CNS
OVCAR-8 ovarian = tested on: OVCAR-8 ovarian
MCF7 breast = tested on: MCF7 breast
SK-MEL-2 melanoma = tested on: SK-MEL-2 melanoma
MOLT-4 leukemia = tested on: MOLT-4 leukemia
RPMI-8226 leukemia = tested on: RPMI-8226 leukemia
OVCAR-4 ovarian = tested on: OVCAR-4 ovarian
SK-MEL-5 melanoma = tested on: SK-MEL-5 melanoma
ACHN renal = tested on: ACHN renal
UACC-257 melanoma = tested on: UACC-257 melanoma
TK-10 renal = tested on: TK-10 renal
UACC-62 melanoma = tested on: UACC-62 melanoma
HCC-2998 colon = tested on: HCC-2998 colon
K-562 leukemia = tested on: K-562 leukemia
HS 578T breast = tested on: HS 578T breast
MDA-MB-435 = tested on: MDA-MB-435
786-0 renal = tested on: 786-0 renal
SW-620 colon = tested on: SW-620 colon
SF-295 CNS = tested on: SF-295 CNS
NCI-H226 lung = tested on: NCI-H226 lung
CCRF-CEM leukemia = tested on: CCRF-CEM leukemia
COLO 205 colon = tested on: COLO 205 colon
SR leukemia = tested on: SR leukemia

With Cc1ccc2c(NCCCN(C)C)c3c(C)nn(C)c3nc2c1 the TGI (UO-31 renal) was 14 µM, the GI50 (HL-60(TB) leukemia) was 5.08 µM and the TGI (HL-60(TB) leukemia) was 22.9 µM. The GI50 (HCT-116 colon) was 3.04 µM, the TGI (HCT-116 colon) was 25.1 µM and the GI50 (SK-MEL-28 melanoma) was 4.44 µM. For the same compound, the TGI (SK-MEL-28 melanoma) was 17.3 µM, the GI50 (KM12 colon) was 4.55 µM and the TGI (KM12 colon) was 31.8 µM. It also gave a GI50 (IGROV1 ovarian) of 4.17 µM, a TGI (IGROV1 ovarian) of 29.6 µM and a GI50 (U251 CNS) of 4.77 µM. The TGI (U251 CNS) was 29.4 µM, the GI50 (OVCAR-8 ovarian) was 3.73 µM and the TGI (OVCAR-8 ovarian) was 21.7 µM. The GI50 (MCF7 breast) was 2.53 µM, the TGI (MCF7 breast) was 7.04 µM and the GI50 (SK-MEL-2 melanoma) was 3.64 µM. The TGI (SK-MEL-2 melanoma) was 11.1 µM, the GI50 (MOLT-4 leukemia) was 5.11 µM and the TGI (MOLT-4 leukemia) was 33.1 µM. For the same compound, the GI50 (RPMI-8226 leukemia) was 3.3 µM, the TGI (RPMI-8226 leukemia) was 14.4 µM and the GI50 (OVCAR-4 ovarian) was 3.06 µM. It also gave a TGI (OVCAR-4 ovarian) of 16.1 µM, a GI50 (SK-MEL-5 melanoma) of 3.66 µM and a TGI (SK-MEL-5 melanoma) of 14.3 µM. The GI50 (ACHN renal) was 2.25 µM, the TGI (ACHN renal) was 16.9 µM and the GI50 (UACC-257 melanoma) was 3.9 µM. It also gave a TGI (UACC-257 melanoma) of 14.4 µM, a GI50 (TK-10 renal) of 2.89 µM and a TGI (TK-10 renal) of 14 µM. The GI50 (UACC-62 melanoma) was 3.9 µM, the TGI (UACC-62 melanoma) was 16.4 µM and the GI50 (HCC-2998 colon) was 5.83 µM. For the same compound, the TGI (HCC-2998 colon) was 22.4 µM, the GI50 (K-562 leukemia) was 3.14 µM and the TGI (K-562 leukemia) was > 100 µM. For the same compound, the GI50 (HS 578T breast) was 4.24 µM, the TGI (HS 578T breast) was 33.5 µM and the GI50 (MDA-MB-435) was 3.28 µM. The TGI (MDA-MB-435) was 14 µM, the GI50 (786-0 renal) was 4.99 µM and the TGI (786-0 renal) was 26.5 µM. It also gave a GI50 (SW-620 colon) of 2.96 µM, a TGI (SW-620 colon) of 35.5 µM and a GI50 (SF-295 CNS) of 3.83 µM. The TGI (SF-295 CNS) was 28.4 µM, the GI50 (NCI-H226 lung) was 3.34 µM and the TGI (NCI-H226 lung) was 27 µM. For the same compound, the GI50 (CCRF-CEM leukemia) was 5.09 µM, the TGI (CCRF-CEM leukemia) was 88.8 µM and the GI50 (COLO 205 colon) was 3.03 µM. The TGI (COLO 205 colon) was 11.4 µM, the GI50 (SR leukemia) was 3.36 µM and the TGI (SR leukemia) was > 100 µM.
